Measurements: patent publication US20230303497A1, “BENZYLAMINE OR BENZYL ALCOHOL DERIVATIVE AND USES THEREOF” (CHENGDU HYPERWAY PHARMACEUTICALS CO., LTD, priority 2020, published 2023)

These molecules were tested against human NaV1.8 ion channel (Homo sapiens (Human), UniProt Q9Y5Y9) (assay: Compound inhibition activity on human NaV1.8 ion channel in HEK293 cells (whole-cell patch clamp)). Settings: 100 nm concentration; HEK293 cells, resting protocol.
Format: cell-based
Description: Test Case 1: Compound Inhibition Activity on Human NaV1.8 Ion Channel in HEK293 Cells
The final concentrations of the test compounds are prepared on the same day and then dissolved in extracellular solution. […] The intracellular solution (mM) contains: Aspartic acid, 140; MgCl2, 2; EGTA 11; HEPES, 10; pH 7.2 (CsOH titration). All test solutions contain 1 μM TTX.
The test solution are stored at a concentration of 3 mM in dimethyl sulfoxide (DMSO). The solutions will be dissolved in extracellular solution on the day of testing and prepared to the required concentration.
All experiments were performed at room temperature. Each cell itself is taken as the corresponding control.
At least one cell is tested per concentration.
HEK293 cell steady expressing NaV1.8 ion channel.
The intracellular fluid (mM) contains: Aspartic acid, 140; MgCl2, 2; EGTA 11; HEPES, 10; pH 7.2 (CsOH titration). […] Electrodes are drawn with PC-10 (Narishige, Japan). Recording is performed with whole-cell diaphragm clamp.
The cells are clamped at −80 mV and then depolarized to 10 mV with a sustained 10 ms square wave to give a Nav1.8 current. This procedure is repeated every 5 seconds.

human NaV1.8 ion channel, sequence (Q9Y5Y9 whole entry): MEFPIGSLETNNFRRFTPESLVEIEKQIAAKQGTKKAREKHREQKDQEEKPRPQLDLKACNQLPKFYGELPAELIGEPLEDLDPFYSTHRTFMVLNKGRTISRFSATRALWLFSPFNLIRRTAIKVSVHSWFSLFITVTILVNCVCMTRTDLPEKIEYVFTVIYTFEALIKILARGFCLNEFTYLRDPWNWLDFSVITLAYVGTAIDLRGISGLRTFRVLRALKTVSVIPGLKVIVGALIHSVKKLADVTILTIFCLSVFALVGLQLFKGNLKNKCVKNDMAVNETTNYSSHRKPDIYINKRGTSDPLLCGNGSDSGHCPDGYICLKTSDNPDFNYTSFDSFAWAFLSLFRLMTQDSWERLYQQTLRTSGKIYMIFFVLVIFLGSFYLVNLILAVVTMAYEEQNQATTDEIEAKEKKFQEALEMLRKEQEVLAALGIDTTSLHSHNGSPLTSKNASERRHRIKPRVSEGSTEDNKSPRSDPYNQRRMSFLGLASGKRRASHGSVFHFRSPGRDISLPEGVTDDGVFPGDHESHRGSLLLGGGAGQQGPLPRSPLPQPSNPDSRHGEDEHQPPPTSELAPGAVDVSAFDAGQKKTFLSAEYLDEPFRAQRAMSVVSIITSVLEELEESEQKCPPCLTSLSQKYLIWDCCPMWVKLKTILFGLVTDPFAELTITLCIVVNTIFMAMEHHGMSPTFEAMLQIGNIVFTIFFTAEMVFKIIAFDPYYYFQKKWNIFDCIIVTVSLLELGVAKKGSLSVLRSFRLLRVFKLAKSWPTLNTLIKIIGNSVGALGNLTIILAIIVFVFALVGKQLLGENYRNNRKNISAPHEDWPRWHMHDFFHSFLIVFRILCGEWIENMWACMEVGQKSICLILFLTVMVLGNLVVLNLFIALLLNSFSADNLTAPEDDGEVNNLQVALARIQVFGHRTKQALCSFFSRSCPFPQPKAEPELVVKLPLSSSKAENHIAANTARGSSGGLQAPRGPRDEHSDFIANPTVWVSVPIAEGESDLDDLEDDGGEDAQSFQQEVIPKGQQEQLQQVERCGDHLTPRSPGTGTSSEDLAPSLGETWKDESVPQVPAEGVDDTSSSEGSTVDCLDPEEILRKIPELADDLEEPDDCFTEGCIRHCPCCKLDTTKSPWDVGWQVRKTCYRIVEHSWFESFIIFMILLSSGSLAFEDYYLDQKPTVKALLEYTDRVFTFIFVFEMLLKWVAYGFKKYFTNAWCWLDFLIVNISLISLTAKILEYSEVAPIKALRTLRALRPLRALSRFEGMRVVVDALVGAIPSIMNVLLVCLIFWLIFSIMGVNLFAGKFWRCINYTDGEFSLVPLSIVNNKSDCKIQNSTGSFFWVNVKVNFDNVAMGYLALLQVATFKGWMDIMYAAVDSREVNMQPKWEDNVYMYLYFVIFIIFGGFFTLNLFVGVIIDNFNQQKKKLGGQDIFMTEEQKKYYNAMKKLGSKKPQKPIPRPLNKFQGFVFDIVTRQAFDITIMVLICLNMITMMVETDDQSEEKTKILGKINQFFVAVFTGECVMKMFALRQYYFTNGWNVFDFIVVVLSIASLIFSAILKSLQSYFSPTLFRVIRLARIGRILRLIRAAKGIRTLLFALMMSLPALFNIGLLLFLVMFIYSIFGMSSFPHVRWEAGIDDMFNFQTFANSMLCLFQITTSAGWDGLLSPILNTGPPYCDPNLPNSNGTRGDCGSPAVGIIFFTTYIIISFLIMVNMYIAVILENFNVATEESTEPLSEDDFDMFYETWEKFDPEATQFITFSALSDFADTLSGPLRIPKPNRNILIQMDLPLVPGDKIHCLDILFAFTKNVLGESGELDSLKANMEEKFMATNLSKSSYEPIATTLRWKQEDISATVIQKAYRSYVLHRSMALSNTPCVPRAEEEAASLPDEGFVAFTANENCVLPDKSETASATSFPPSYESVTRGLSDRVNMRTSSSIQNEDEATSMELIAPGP

Inhibition ratio of compounds against Nav1.8 (Activity of inhibition) | Inhibition ratio of Nav1.8 (Activity of inhibition) | Structure (SMILES)
B (80 > B >= 50) |  | Cc1cc(F)ccc1Oc1cc(C2CC2)c(C(F)(F)F)cc1C(=O)Nc1ccnc(OCC(O)CO)c1 (stereo not shown) [Example 63, 4-Cyclopropyl-N-(2-(2,3-dihydroxypropoxy)pyridin-4-yl)-2-(4-fluoro-2-methylphenoxy)-5-(trifluoromethyl) benzamide]
 | D (D < 20) | Cc1cc(F)ccc1Oc1ccc(C(F)(F)F)cc1C(=O)Nc1ccc(F)c(C2CCC(C(N)=O)N2)c1 (stereo not shown) [Example 16, 5-(2-fluoro-5-(2-(4-fluoro-2-methylphenoxy)-5-(trifluoromethyl)benzamido)phenyl) pyrrolidine-2-carboxacylamino]

Same assay, conditions: 100 nm concentration; HEK293 cells, resting protocol; read-out: Inhibition ratio of Nav1.8 (Activity of inhibition)

inhibition at 0.1 µM | Structure (SMILES)
50 to 80% | Cc1cc(F)ccc1Oc1cc(C2CC2)c(C(F)(F)F)cc1C(=O)Nc1ccc(F)c(C(N)CC(C)O)c1 (stereo not shown) [Example 20, N-(3-(1-Amino-3-hydroxybutyl)-4-fluorophenyl)-4-cyclopropyl-2-(4-fluoro-2-methylphenoxy)-5-(trifluoromethyl) benzamide]
< 20% | Cc1cc(F)ccc1Oc1cc(C2CC2)c(C(F)(F)F)cc1C(=O)Nc1ccc(F)c(C(F)(F)C(=O)NCCO)c1 [Example 33, 4-Cyclopropyl-N-(3-(1,1-difluoro-2-((2-hydroxyethyl)amino)-2-oxoethyl)-4-fluorophenyl)-2-(4-fluoro-2-methylphenoxy)-5-(trifluoromethyl) benzamide]
> 80% | CNC(=O)C(N)c1cc(NC(=O)c2ccc(C(F)(F)F)cc2Oc2ccc(F)cc2C)ccc1F (stereo not shown) [Example 42]
> 80% | Cc1cc(F)ccc1Oc1cc(C(F)(F)F)ccc1C(=O)Nc1ccc(F)c(C(N)C(N)=O)c1 (stereo not shown) [Example 41]
> 80% | Cc1cc(F)ccc1Oc1cc(C2CC2)c(C(F)(F)F)cc1C(=O)Nc1ccc(F)c(C(N)C2CCNC2=O)c1 (stereo not shown) [Example 19, N-(3-(amino (2-oxopyrrolidin-3-yl)methyl)-4-fluorophenyl)-4-cyclopropyl-2-(4-fluoro-2-methylphenoxy)-5-(trifluoromethyl) benzamide]
> 80% | Cc1cc(F)ccc1Oc1cc(C(F)(F)F)ccc1C(=O)Nc1ccc(F)c(C(N)CC(N)=O)c1 (stereo not shown) [Example 39]
50 to 80% | Cc1cc(F)ccc1Oc1cc(C2CC2)c(C(F)(F)F)cc1C(=O)Nc1ccc(F)c(OCCN)c1 [Example 34, N-(3-(2-aminoethoxy)-4-fluorophenyl)-4-cyclopropyl-2-(4-fluoro-2-methylphenoxy)-5-(trifluoromethyl) benzamide]
50 to 80% | Cc1cc(F)ccc1Oc1cc(C2CC2)c(C(F)(F)F)cc1C(=O)Nc1ccc(F)c(C(F)CCO)c1 (stereo not shown) [Example 31, 4-Cyclopropyl-2-(4-fluoro-2-methylphenoxy)-N-(4-fluoro-3-(1-fluoro-3-hydroxypropyl)phenyl)-5-(trifluoromethyl) benzamide]
20 to 50% | Cc1cc(F)ccc1Oc1cc(C2CC2)c(C(F)(F)F)cc1C(=O)Nc1ccc(F)c(C(C)CCO)c1 (stereo not shown) [Example 28, 4-cyclopropyl-2-(4-fluoro-2-methylphenoxy)-N-(4-fluoro-3-(4-hydroxybutan-2-yl)phenyl)-5-(trifluoromethyl) benzamide]
20 to 50% | Cc1cc(F)ccc1Oc1cc(C2CC2)c(C(F)(F)F)cc1C(=O)Nc1ccc(F)c(C(F)(F)CCO)c1 [Example 32, 4-Cyclopropyl-N-(3-(1,1-difluoro-3-hydroxypropyl)-4-fluorophenyl)-2-(4-fluoro-2-methylphenoxy)-5-(trifluoromethyl) benzamide]
50 to 80% | Cc1cc(F)ccc1Oc1cc(C2CC2)c(C(F)(F)F)cc1C(=O)Nc1ccc(F)c(C(C)CN)c1 (stereo not shown) [Example 30, N-(3-(1-aminopropyl-2-yl)-4-fluorophenyl)-4-cyclopropyl-2-(4-fluoro-2-methylphenoxy)-5-(trifluoromethyl) benzamide]
> 80% | Cc1cc(F)ccc1Oc1cc(C2CC2)c(C(F)(F)F)cc1C(=O)Nc1ccc(F)c(C(N)C(N)=O)c1 (stereo not shown) [Example 9, 4-Cyclopropyl-N-(3-(1,2-diamino-2-oxoethyl)-4-fluorophenyl)-2-(4-fluoro-2-methylphenoxy)-5-(trifluoromethyl) benzamide]
> 80% | Cc1cc(F)ccc1Oc1cc(C2CC2)c(C(F)(F)F)cc1C(=O)Nc1ccc(F)c(C(CCO)N(C)C)c1 (stereo not shown) [Example 8, 4-Cyclopropyl-N-(3-(1-(dimethylamino)-3-hydroxypropyl)-4-fluorophenyl)-2-(4-fluoro-2-methylphenoxy)-5-(trifluoromethyl) benzamide]
20 to 50% | Cc1cc(F)ccc1Oc1ccc(C(F)(F)F)cc1C(=O)Nc1ccc(F)c(C(O)C2CCNC2=O)c1 (stereo not shown) [Example 25, 2-(4-fluoro-2-methylphenoxy)-N-(4-fluoro-3-(hydroxyl (2-oxopyrrolidin-3-yl)methyl)phenyl)-5-(trifluoromethyl) benzamide]
> 80% | Cc1cc(F)ccc1Oc1ccc(C(F)(F)F)cc1C(=O)Nc1ccc(F)c(C(C)C(N)=O)c1 (stereo not shown) [Example 27, N-(3-(1-Amino-1-oxopropan-2-yl)-4-fluorophenyl)-2-(4-fluoro-2-methylphenoxy)-5-(trifluoromethyl) benzamide]

Same assay, conditions: 100 nm concentration; HEK293 cells, resting protocol; read-out: Inhibition ratio of compounds against Nav1.8 (Activity of inhibition)

inhibition at 0.1 µM | Structure (SMILES)
50 to 80% | Cc1cc(F)ccc1Oc1cc(C(F)(F)F)c(Cl)cc1C(=O)Nc1cnnc(OC[C@@H](O)CO)c1 [Example 115]
50 to 80% | Cc1cc(F)ccc1Oc1cc(C2CC2)c(C(F)(F)F)cc1C(=O)Nc1ccc(F)c(C(F)CN)c1 (stereo not shown) [Example 47, N-(3-(2-Amino-1-fluoroethyl)-4-fluorophenyl)-4-cyclopropyl-2-(4-fluoro-2-methylphenoxy)-5-(trifluoromethyl) benzamide]
> 80% | Cc1cc(F)ccc1Oc1cc(C2CC2)c(C(F)(F)F)cc1C(=O)Nc1ccc(F)c(OCC(O)CNC2CC2)c1 (stereo not shown) [Example 78]
50 to 80% | Cc1cc(F)ccc1Oc1cc(C2CC2)c(C(F)(F)F)cc1C(=O)Nc1ccc(F)c(OCC(O)CNc2ncc[nH]2)c1 (stereo not shown) [Example 100]
50 to 80% | Cc1cc(F)ccc1Oc1cc(C2CC2)c(C(F)(F)F)cc1C(=O)Nc1ccc(F)c(OCc2nccs2)c1 [Example 75]
50 to 80% | Cc1cc(F)ccc1Oc1cc(C2CC2)c(C(F)(F)F)cc1C(=O)Nc1ccnc(OC[C@@H](O)CO)c1 [Example 105]
20 to 50% | Cc1cc(F)ccc1Oc1cc(C2CC2)c(C(F)(F)F)cc1C(=O)Nc1ccc(F)c(OC2CCC(CO)OC2)c1 (stereo not shown) [Example 84]
20 to 50% | Cc1cc(F)ccc1Oc1cc(C2CC2)c(C(F)(F)F)cc1C(=O)Nc1ccc(F)c(OCC(=O)NCC(F)(F)F)c1 [Example 61]
50 to 80% | Cc1cc(F)ccc1Oc1cc(C2CC2)c(C(F)(F)F)cc1C(=O)Nc1ccc(F)c(C(CCO)n2ccnc2)c1 (stereo not shown) [Example 49, 4-Cyclopropyl-2-(4-fluoro-2-methylphenoxy)-N-(4-fluoro-3-(3-hydroxy-1-(1H-imidazol-1-yl)propyl)phenyl)-5-(trifluoromethyl) benzamide]
> 80% | Cc1cc(F)ccc1Oc1cc(C(F)(F)F)c(Cl)cc1C(=O)Nc1ccnc(OC[C@@H](O)CO)c1 [Example 113, (S)-5-chloro-N-(2-(2,3-dihydroxypropoxy)pyridin-4-yl)-2-(4-fluoro-2-methylphenoxy)-4-(trifluoromethyl) benzamide]
50 to 80% | Cc1cc(F)ccc1Oc1ccc(C(F)(F)F)cc1C(=O)Nc1ccnc(OC[C@H](O)CO)c1 [Example 122]
50 to 80% | Cc1cc(F)ccc1Oc1cc(C2CC2)c(C(F)(F)F)cc1C(=O)Nc1ccc(F)c(OCC(O)CNc2ccn[nH]2)c1 (stereo not shown) [Example 99]
> 80% | Cc1cc(F)ccc1Oc1cc(C2CC2)c(C(F)(F)F)cc1C(=O)Nc1ccc(F)c(OCC(N)=O)c1 [Example 76]
50 to 80% | Cc1cc(F)ccc1Oc1cc(C2CC2)c(C(F)(F)F)cc1C(=O)Nc1ccc(F)c(OCC(O)CNC23CC(C2)C3)c1 (stereo not shown) [Example 93]
> 80% | Cc1cc(F)ccc1Oc1cc(C(F)(F)F)c(Cl)cc1C(=O)Nc1ccc(F)c(OCC(O)CNC(C)C)c1 (stereo not shown) [Example 106]
50 to 80% | Cc1cc(F)ccc1Oc1cc(C(F)(F)F)c(Cl)cc1C(=O)Nc1cnnc(OCC(O)CO)c1 (stereo not shown) [Example 101]
> 80% | Cc1cc(F)ccc1Oc1cc(C2CC2)c(C(F)(F)F)cc1C(=O)Nc1ccc(F)c(OCC(O)CN)c1 (stereo not shown) [Example 57, N-(3-(3-amino-2-hydroxypropoxy)-4-fluorophenyl)-4-cyclopropyl-2-(4-fluoro-2-methylphenoxy)-5-(trifluoromethyl) benzamide]
50 to 80% | Cc1cc(F)ccc1Oc1cc(C(F)(F)F)ccc1C(=O)Nc1ccc(F)c(OCC(O)CN)c1 (stereo not shown) [Example 110]
20 to 50% | Cc1cc(F)ccc1Oc1cc(C2CC2)c(C(F)(F)F)cc1C(=O)Nc1ccc(F)c(OCC(O)CNc2ccccc2)c1 (stereo not shown) [Example 92]

Same assay, conditions: HEK293, read-out: Inhibition ratio of compounds against Nav1.8 (Activity of inhibition)

Structure (SMILES) | inhibition at 0.1 µM
Cc1cc(F)ccc1Oc1cc(C2CC2)c(C(F)(F)F)cc1C(=O)Nc1ccc(F)c(OCCOC(N)=O)c1 [Example 62, (2-(5-(4-Cyclopropyl-2-(4-fluoro-2-methylphenoxy)-5-(trifluoromethyl)benzamido)-2-fluorophenoxy)ethyl) carbamate] | 50 to 80%
